Values quoted from earlier work in patent US20230360801A1, “METHODS AND SYSTEMS OF IDENTIFYING INDIVIDUALS FOR PERIOPERATIVE NEUROCOGNITIVE DISORDER AND/OR POST-VIRAL COGNITIVE IMPAIRMENT” (Cambridge Cognition Limited, priority 2021, published 2023).

logP: 3.9
SMILES: CC(C)(Oc1ccc(C(=O)c2ccc(Cl)cc2)cc1)C(=O)O [fenofibric acid]
